We go through 23 compounds from patent US20240308988A1, “Method For Controlling Diamide Resistant Pests and Compounds Therefor” (priority 2021, published 2024).

For data set [1], the system named is Plutella xylostella (Diamond back moth) ryanodine receptor, containing the G4946E resistance mutation. The experiment in a line: In vitro calcium fluorescence assay (Fluo-8 NW, FDSS) in human embryonic kidney cells expressing the ryanodine receptor. The format is cell-based. To be noted: table, EC50 (compound)/EC50 (cyantraniliprole), G4946E RyR in HEK cells. The procedure:
Human embryonic kidney cells expressing the Plutella xylostella (Diamond back moth) ryanodine receptor, containing the G4946E resistance mutation, are loaded with Fluo-8 No Wash (NW) calcium-sensitive dye which responds by fluorescence to a change in intracellular calcium (e.g. stimulated by activation of ryanodine receptor). Test compounds are added in 10 rates to a 384-well plate containing dye-loaded cells and the fluorescent signal is measured using the Hamamatsu FDSS (Functional Drug Screening system). Dose-response curves are plotted to estimate the EC50. EC50 are normalized against an in-assay reference standard (cyantraniliprole) to address inter-assay variability. The ratio for a given compound is then obtained by the following formula:
REC50=EC50 (compound)/EC50 (cyantraniliprole).

Data set [2] deals with Resistant Plutella xylostella R1 (multi-resistant larvae having the G4946E resistance mutation). The data set is described as follows: Resistant Plutella xylostella R1 (Diamond back moth) larvicide L3, feeding/contact, sprayed Chinese cabbage leaves. The data set is classed as in vivo. To be noted: for pest or weed control at 50 µg/mL: Plutella xylostella, 96 h, read-out: control of the resistant strain of Plutella xylostella R1. The procedure:
Resistant Plutella xylostella R1 (Diamond back moth) larvicide L3, feeding/contact Chinese cabbage plants were sprayed with diluted test solutions in an application chamber. Cut off leaves were placed into petri dishes with wetted filter paper and infested 1 day after application with 10 L3 multi-resistant Plutella xylostella larvae having the G4946E resistance mutation.
Samples were assessed 4 days after infestation for mortality and growth regulation.
Chlorantraniliprole was used as standard and a resistance factor of 146 was obtained for this strain.
Plutella xylostella resistant strain R1 originally collected from Taiwan in 2012 that carries the RyR mutation G4946E conferring resistance to diamides. The strain is reared on cabbage plants (Brassica aleracea) and selected approximately every two weeks with chlorantraniliprole.

Data set [3] has as its system Resistant Plutella xylostella R4 (carries the RyR mutation G4946E). The experiment in a line: Resistant Plutella xylostella R4 (Diamond back moth) larvicide L1, feeding/contact, artificial diet in 24-well plates. To be noted: for pest or weed control at 50 µg/mL: Plutella xylostella, 192 h, read-out: control of the resistant strain of Plutella xylostella R4. The format is in vivo. The procedure: Resistant Plutella xylostella R4 (Diamond back moth) larvicide L1, feeding/contact 24-well microtiter plates with artificial diet were treated with aqueous test solutions prepared from 10′000 ppm DMSO stock solutions by pipetting. After drying, around 30 Plutella eggs were pipetted through a plastic stencil onto a gel blotting paper and the plate was closed with it. The samples were assessed for mortality in comparison to untreated samples 8 days after infestation.
Chlorantraniliprole was used as standard and a resistance factor of 242 was obtained for this strain
Plutella xylostella resistant strain R4 originated in the lab in 2021 from crossing the R1 strain with a lab-reared susceptible P. xylostella strain (SUS). R4 can be reared and tested on artificial diet and also carries the RyR mutation G4946E conferring resistance to diamides. The strain is selected approximately every two weeks with chlorantraniliprole. The following compounds, according to the present invention, gave at least 80% control of the resistant strain of Plutella xylostella R4 at 50 ppm or below: P11, P18, P26, P31, P33, P34, P36, P38, P42, P43, P46, P49, P50, P52, P56, P58, P60, P61, P63, P64, P65, P66, P67, P73, P76, P84, P97, P99, P102, P105.

Bounds are passed on as bounds.

Usually melting point stands for the temperature of the solid-liquid transition. For the compound `Cc1cc(Cl)cc(C(N)=O)c1NC(=O)c1cc(CS(C)(=O)=O)nn1-c1ncccc1Cl`, the melting point fell in the range of 140 to 145 °C.

The compound `Cc1cc(Br)cc(C(N)=O)c1NC(=O)c1cc(Cn2cc(C(F)(F)F)nn2)nn1-c1ncccc1Cl` [Compound P35, N-(4-bromo-2-carbamoyl-6-methyl-phenyl)-2-(3-chloro-2-pyridyl)-5-[[4-(trifluoromethyl)triazol-1-yl]methyl] pyrazole-3-carboxamide] registered a melting point of 190 to 195 °C.

As for `Cc1cc(I)cc(C(N)=O)c1NC(=O)c1cc(Br)nn1-c1ncccc1Cl` [Compound P63, 5-bromo-N-(2-carbamoyl-4-iodo-6-methyl-phenyl)-2-(3-chloro-2-pyridyl) pyrazole-3-carboxamide], the “REC50 (Compound of the invention)” value in data set [1] is 0.19. The pest or weed control at 50 µg/mL in data set [2] and in data set [3] was not below 80% in each case.

In the case of `NC(=O)c1cc(Cl)cc(Br)c1NC(=O)c1cc(Cn2cc(C(F)(F)F)nn2)nn1-c1ncccc1Cl`, the melting point is more than 250 °C.

For the compound `NC(=O)c1cc(Br)cc(F)c1NC(=O)c1cc(Cn2nnc(C(F)(F)F)n2)nn1-c1ncccc1Cl` [Compound P41, N-(4-bromo-2-carbamoyl-6-fluoro-phenyl)-2-(3-chloro-2-pyridyl)-5-[[5-(trifluoromethyl)tetrazol-2-yl]methyl]pyrazole-3-carboxamide], the melting point is 110 to 115 °C.

For `NC(=O)c1cc(Cl)cc(Cl)c1NC(=O)c1cc(Br)nn1-c1ncc(Cl)cc1Cl` [Compound P33, 5-bromo-N-(2-carbamoyl-4,6-dichloro-phenyl)-2-(3,5-dichloro-2-pyridyl) pyrazole-3-carboxamide], in data set [1], the “REC50 (Compound of the invention)” value amounted to 0.31. Also, the pest or weed control at 50 µg/mL in data set [2] and in data set [3] was not below 80% each time.

For `Cc1cc(Br)cc(C(N)=O)c1NC(=O)c1cc(Cn2nnc(-c3ccc(C(F)(F)F)cc3)n2)nn1-c1ncccc1Cl` [Compound P43, N-(4-bromo-2-carbamoyl-6-methyl-phenyl)-2-(3-chloro-2-pyridyl)-5-[[5-[4-(trifluoromethyl)phenyl]tetrazol-2-yl]methyl]pyrazole-3-carboxamide], the pest or weed control at 50 µg/mL in data set [2] and in data set [3] was not below 80% throughout.

`NC(=O)c1cc(Cl)cc(Br)c1NC(=O)c1cc(Br)nn1-c1ncccc1Cl` [Compound P34, 5-bromo-N-(2-bromo-6-carbamoyl-4-chloro-phenyl)-2-(3-chloro-2-pyridyl) pyrazole-3-carboxamide]: in data set [1], the “REC50 (Compound of the invention)” value worked out at 0.18. Also, the pest or weed control at 50 µg/mL in data set [2] and in data set [3] was not below 80% in each case.

Compound `Cc1cc(Cl)cc(C(N)=O)c1NC(=O)c1cc(Br)nn1-c1ncccn1` displayed a melting point of 187 to 198 °C.

`NC(=O)c1cc(Br)cc(Cl)c1NC(=O)c1cc(Cn2ncc(C(F)(F)F)n2)nn1-c1ncccc1Cl` [Compound P37, N-(4-bromo-2-carbamoyl-6-chloro-phenyl)-2-(3-chloro-2-pyridyl)-5-[[4-(trifluoromethyl)triazol-2-yl]methyl]pyrazole-3-carboxamide] gave a melting point of 185 to 190 °C.

The compound `Cc1cc(Cl)cc(C(N)=O)c1NC(=O)c1cc(CC#N)nn1-c1ncccc1Cl` [Compound P70, N-(2-carbamoyl-4-chloro-6-methyl-phenyl)-2-(3-chloro-2-pyridyl)-5-(cyanomethyl)pyrazole-3-carboxamide] yielded a melting point of 180 to 185 °C.

On to `Cc1cc(Cl)cc(C(N)=O)c1NC(=O)c1cc(Cn2nnc(-c3ccc(Br)cc3)n2)nn1-c1ncccc1Cl` [Compound P49, 5-[[5-(4-bromophenyl)tetrazol-2-yl]methyl]-N-(2-carbamoyl-4-chloro-6-methyl-phenyl)-2-(3-chloro-2-pyridyl)pyrazole-3-carboxamide], for which the pest or weed control at 50 µg/mL in data set [2] and in data set [3] was not below 80% in each case.

Consider `Cc1cc(C#N)cc(C(N)=O)c1NC(=O)c1cc(C(F)(F)F)nn1-c1ncccc1Cl` [Compound P31, N-(2-carbamoyl-4-cyano-6-methyl-phenyl)-2-(3-chloro-2-pyridyl)-5-(trifluoromethyl)pyrazole-3-carboxamide], for which the “REC50 (Compound of the invention)” value in data set [1] was 0.28. Besides, the pest or weed control at 50 µg/mL in data set [2] and in data set [3] was not below 80% in each case.

`Cc1cc(Cl)cc(C(N)=O)c1NC(=O)c1cc(C[S+](C)[O-])nn1-c1ncccc1Cl` (stereo not shown) had a melting point of 125 to 130 °C.

On to `CNC(=O)c1cc(Cl)cc(C)c1NC(=O)c1cc(Br)nn1-c1ncccc1Cl` [Chlorantraniliprole, chlorantraniliprole, reference compound], for which, in data set [1] (secondary amide analogue), the “REC50 (Comparative compound)” value came to 0.35. In addition, the resistance factor in data set [2] (strain R1, chlorantraniliprole used as standard) is listed as 146; in data set [3] (strain R4, chlorantraniliprole used as standard), 242.

As for `Cc1cc(Br)cc(C(N)=O)c1NC(=O)c1cc(C(F)(F)F)nn1-c1ncccc1Cl` [Compound P26, N-(4-bromo-2-carbamoyl-6-methyl-phenyl)-2-(3-chloro-2-pyridyl)-5-(trifluoromethyl)pyrazole-3-carboxamide], in data set [1], the “REC50 (Compound of the invention)” value came out at 0.19. The pest or weed control at 50 µg/mL in data set [2] and in data set [3] was not below 80% throughout.

Consider `NC(=O)c1cc(Cl)cc(Cl)c1NC(=O)c1cc(Cn2nnc(-c3ccc(C(F)(F)F)cc3)n2)nn1-c1ncccc1Cl` [Compound P58, N-(2-carbamoyl-4,6-dichloro-phenyl)-2-(3-chloro-2-pyridyl)-5-[[5-[4-(trifluoromethyl)phenyl]tetrazol-2-yl]methyl]pyrazole-3-carboxamide], for which the pest or weed control at 50 µg/mL in data set [2] and in data set [3] was not below 80% each time.

As to `Cc1cc(I)cc(C(N)=O)c1NC(=O)c1cc(OCC(F)(F)F)nn1-c1ncccc1Cl` [Compound P11, N-(2-carbamoyl-4-iodo-6-methyl-phenyl)-2-(3-chloro-2-pyridyl)-5-(2,2,2-trifluoroethoxy)pyrazole-3-carboxamide], the pest or weed control at 50 µg/mL in data set [2] and in data set [3] was not below 80% throughout.

As to `NC(=O)c1cc(Cl)cc(Cl)c1NC(=O)c1cc(I)nn1-c1ncccc1Cl` [Compound P50, N-(2-carbamoyl-4,6-dichloro-phenyl)-2-(3-chloro-2-pyridyl)-5-iodo-pyrazole-3-carboxamide], the pest or weed control at 50 µg/mL in data set [2] and in data set [3] was not below 80% each time.

With `Cc1cc(Br)cc(C(N)=O)c1NC(=O)c1cc(Cn2ncc(C(F)(F)F)n2)nn1-c1ncccc1Cl` [Compound P38, N-(4-bromo-2-carbamoyl-6-methyl-phenyl)-2-(3-chloro-2-pyridyl)-5-[[4-(trifluoromethyl)triazol-2-yl]methyl]pyrazole-3-carboxamide], the pest or weed control at 50 µg/mL in data set [2] and in data set [3] was not below 80% each time.

In the case of `Cc1cc(C#N)cc(C(N)=O)c1NC(=O)c1cc(Cn2nnc(-c3ccc(C(F)(F)F)cc3)n2)nn1-c1ncccc1Cl` [Compound P67, N-(2-carbamoyl-4-cyano-6-methyl-phenyl)-2-(3-chloro-2-pyridyl)-5-[[5-[4-(trifluoromethyl)phenyl]tetrazol-2-yl]methyl]pyrazole-3-carboxamide], in data set [1], the “REC50 (Compound of the invention)” value is listed as 0.63. The pest or weed control at 50 µg/mL in data set [2] and in data set [3] was not below 80% each time.

With `NC(=O)c1cc(Br)cc(Cl)c1NC(=O)c1cc(I)nn1-c1ncccc1Cl` [Compound P36, N-(4-bromo-2-carbamoyl-6-chloro-phenyl)-2-(3-chloro-2-pyridyl)-5-iodo-pyrazole-3-carboxamide], the pest or weed control at 50 µg/mL in data set [2] and in data set [3] was not below 80% throughout.

As to `Cc1cc(Cl)cc(C(N)=O)c1NC(=O)c1cc(C2CC2)nn1-c1ncccc1Cl` [Compound P76, N-(2-carbamoyl-4-chloro-6-methyl-phenyl)-2-(3-chloro-2-pyridyl)-5-cyclopropyl-pyrazole-3-carboxamide], the “REC50 (Compound of the invention)” value in data set [1] was 0.42. Moreover, the pest or weed control at 50 µg/mL in data set [2] and in data set [3] was not below 80% throughout.
